Measured values: patent EP4800018A1, “PAN-KRAS INHIBITOR AND USE THEREOF IN MEDICINES” (Betta Pharmaceuticals Co., Ltd., priority 2023, dated 2025)
Where two headings read alike, the source gives them in different places.

What was measured:
[1] = system: KRAS-G12D mutant tumor cells AGS; experiment: Cell Proliferation Inhibition Assay (AGS), Cell-titer GLO, 96 h; type: cell-based; details: AGS cells, 96 h incubation, Cell-titer GLO, read-out: AGS(G12D)
Summary of the method: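 Inhibition % was derived from CellTiter-Glo luminescence (max minus measured, over max minus blank) and fitted to give IC50. Cells were KRAS-G12D AGS in low-attachment wells, treated for 96 h at 37°C.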

[2] = system: KRAS-G12V mutant tumor cells SW620; experiment: Cell Proliferation Inhibition Assay (SW620), Cell-titer GLO, 96 h; type: cell-based; details: SW620 cells, 96 h incubation, Cell-titer GLO, read-out: SW620(G12V)
Summary of the method: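 Readout: Cell-titer GLO luminescence after 96 h at 37°C, converted to percent inhibition against 0.5% DMSO and blank controls, with IC50 from curve fit. Low-attachment SW620 cultures (1×10^3 cells/well) were dosed at 10000–0.03 nM final.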

[3] = molecular target: T1, KRAS G12D-cRAF (Homo sapiens, UniProt P01116, G12D); experiment: Cellular KRAS G12D-cRAF Binding Inhibition Assay (NanoBRET, AD293 stable cells); type: cell-based; details: 3 h incubation, read-out: NanoBRET KRAS G12D
T1 construct: expressed in transfected cells
Summary of the method: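 IC50 values derive from fitted % inhibition, normalised to maximum signal and medium-only blank. The read-out is NanoBRET between KRAS G12D-NanoLuc (donor) and cRAF RBD-HaloTag labelled with the 618 ligand (acceptor), in live stably transfected AD293 cells at 1×10^4/well.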

[4] = molecular target: T2, KRAS G12V-cRAF (Homo sapiens, UniProt P01116, G12V); experiment: Cellular KRAS G12V-cRAF Binding Inhibition Assay (NanoBRET, AD293 stable cells); type: cell-based; details: 3 h incubation, read-out: NanoBRET KRAS G12V
T2 construct: expressed in transfected cells
Summary of the method: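 Binding measured as BRET between NanoLuc and HaloTag-bound NanoBRET 618 ligand (added overnight) in stably expressing AD293 cells. Signals were converted to percent inhibition against max and blank wells and fitted for IC50.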

[5] = PK Study of Compounds in Rats; type: in vivo, Male SD rats; details: mean; for F: PO 10 mg/kg vs IV 1 mg/kg (n=3); for Cmax: read-out: C0/Cmax; for Vd: read-out: Vss
Description: (§1) The test compound was mixed with the vehicle (10% DMSO/5% Solutol/85% physiological saline), vortexed and sonicated to prepare a clear 0.5 mg/mL intravenous injection solution. The test compound was mixed with the vehicle (20% PEG400/10% Solutol/70% pH 4.5 acetate buffer), vortexed and sonicated to prepare a clear 1 mg/mL oral solution. Male SD rats aged 6 to 7 weeks were selected and administered the test compound via intravenous (IV) and oral (PO) routes, respectively. Whole blood samples were collected at 5 min, 15 min, 30 min, 1 h, 2 h, 4 h, 7 h, and 24 h for the intravenous route, and at 15 min, 30 min, 1 h, 2 h, 4 h, 7 h, and 24 h for the oral route. Drug concentrations were analyzed by LC-MS/MS method, and pharmacokinetic parameters were calculated using Phoenix WinNonlin software (Pharsight, USA).

[6] = PK Study of Compounds in Mice; type: in vivo, Female ICR mice; details: mean; for Cmax: read-out: C0/Cmax
Description: as §1, with “0.2” for “0.5”, “Female ICR mice” for “Male SD rats”

[7] = male, SD, rat, whole blood, IV 1 mg/kg (n=3)
[8] = male, SD, rat, whole blood, IV 1 mg/kg (n=3), read-out: AUC0-t
[9] = male, SD, rat, whole blood, PO 10 mg/kg (n=3)
[10] = male, SD, rat, whole blood, PO 10 mg/kg (n=3), read-out: AUC0-t
[11] = male, SD, rat, whole blood, PO 10 mg/kg (n=3), read-out: Tmax
[12] = female, ICR, mouse, whole blood, IV 1 mg/kg (n=3)
[13] = female, ICR, mouse, whole blood, PO 10 mg/kg (n=3)

| Compound | IC50 ([1]; Homo sapiens, AGS, 96 h) | IC50 ([2]; Homo sapiens, SW-620, 96 h) | IC50 [3] | IC50 [4] | F [5] | clearance [5, 7] | half-life [5, 7] | AUC(0-t) [5, 8] | Cmax [5, 7] | Vd [5, 7] | AUC(0-t) [5, 10] | Cmax [5, 9] | Tmax [5, 11] | IC50 [1] | IC50 [2] | further results |
| --- | --- | --- | --- | --- | --- | --- | --- | --- | --- | --- | --- | --- | --- | --- | --- | --- |
| CC1OCCCn2c(c3c4cc(ccc42)-c2csc(n2)CC(NC(=O)C2C4COCC42)C(=O)N2NC(C(=O)OCC(C)(C)C3)C3CC2C3)-c2cc(N3CCN(C)CC3)cnc21 [Example 192, (1R,5S,6r)-N-((1^5S,6^4S,4S,Z)-1^5,10,10-trimethyl-1^2-(4-methylpiperazin-1-yl)-5,7-dioxo-1^8,1^9-dihydro-1^5H,1^7H-8-oxa-6^2,6^3-diaza-1(13,15)-pyrido[3',2':7,8][1,5]oxazonino[5,6-a]indola-2(4,2)-thiazola-6(2,4)-bicyclo[3.1.1]heptanacycloundecaphane-4-yl)-3-oxabicyclo[3.1.0]hexane-6-carboxamide] | 1500 pM | 900 pM | 4300 pM | 16300 pM | 11.9 | 3.59 mL/min/kg | 4.93 h | 4500 ng·h/mL | 4220 ng/mL | 1.11 L/kg | 5350 ng·h/mL | 472 ng/mL | 3.33 h |  |  | half-life [5, 9]: 5.13 h |
| CC1OCCCn2c(c3c4cc(ccc42)-c2csc(n2)CC(NC(=O)C2C(C)C2C)C(=O)N2CCCC(N2)C(=O)OCC(C)(C)C3)-c2cc(CN3CCN(C)CC3)cnc21 [Example 193, (1r,2R,3S)-2,3-dimethyl-N-((1^5S,6^3S,4S,Z)-1^5,10,10-trimethyl-1^2-((4-methylpiperazin-1-yl)methyl)-5,7-dioxo-1^8,1^9,6^1,6^2,6^3,6^4,6^5,6^6-octahydro-1^5H,1^7H-8-oxa-1(13,15)-pyrido[3',2':7,8][1,5]oxazonino[5,6-a]indola-2(4,2)-thiazola-6(1,3)-pyridazinacycloundecaphane-4-yl)cyclopropane-1-car boxamide] | 900 pM | 200 pM | 1200 pM | 27100 pM |  |  |  |  |  |  |  |  |  |  |  |  |
| CCN1CCN(c2cnc3c(c2)-c2c4c5cc(ccc5n2CCCOC3C)-c2coc(n2)CC(NC(=O)C2C(C)C2C)C(=O)N2NC(C(=O)OCC(C)(C)C4)C3CC2C3)CC1 [Example 197, (1r,2R,3S)-N-((1^5S,6^4S,4S,Z)-1^2-(4-ethylpiperazin-1-yl)-1^5,10,10-trimethyl-5,7-dioxo-1^8,1^9-dihydro-1^5H,1^7H-8-oxa-6^2,6^3-diaza-1(13,15)-pyrido[3',2':7,8][1,5]oxazonino[5,6-a]indola-2(4,2)-oxazola-6(2,4)-bicyclo[3.1.1]heptanacycloundecaphane-4-yl)-2,3-dimethylcyclopropane-1-carboxamide] | 30 pM | 10 pM | 300 pM | 2000 pM |  |  |  |  |  |  |  |  |  |  |  |  |
| CC1OCCCn2c(c3c4cc(ccc42)-c2csc(n2)CC(NC(=O)C2C(C)C2C)C(=O)N2NC(C(=O)OCC(C)(C)C3)C3CC2C3)-c2cc(N3CCN(C4COC4)CC3)cnc21 [Example 198, (1r,2R,3S)-N-((1^5S,6^4S,4S,Z)-1^2-(4-(oxetan-3-yl)piperazin-1-yl)-1^5,10,10-trimethyl-5,7-dioxo-1^8 ,1^9-dihydro-1^5H,1^7H-8-oxa-6^2,6^3-diaza-1(13,15)-pyrido[3',2':7,8][1,5]oxazonino[5,6-a]indola-2(4 ,2)-thiazola-6(2,4)-bicyclo[3.1.1]heptanacycloundecaphane-4-yl)-2,3-dimethylcyclopropane-1-ca rboxamide] | 370 pM | 90 pM | 2000 pM | 8400 pM | 32.4 | 2.22 mL/min/kg | 7.22 h | 6940 ng·h/mL | 6060 ng/mL | 1.08 L/kg | 22500 ng·h/mL | 2060 ng/mL | 3.33 h |  |  | F ([6]; PO 10 mg/kg vs IV 1 mg/kg (n=3)): 54.0; AUC(0-t) [6, 12]: 2450 ng·h/mL; clearance [6, 12]: 5.75 mL/min/kg; half-life [6, 12]: 8.9 h; Cmax [6, 12]: 462 ng/mL; Vd ([6]; female, ICR, mouse, whole blood, IV 1 mg/kg (n=3), read-out: Vss): 4.66 L/kg; AUC(0-t) [6, 13]: 13200 ng·h/mL; Tmax [6, 13]: 2 h; Cmax [6, 13]: 1300 ng/mL |
| (1S,2S)-2-(difluoromethyl)-N-((1^5S,6^3S,4S,Z)-1^5,10,10-trimethyl-1^2-(6-methyl-3,6-diazabicyclo[ 3.1.1]heptan-3-yl)-5,7-dioxo-1^8,1^9,6^1,6^2,6^3,6^4,6^5,6^6-octahydro-1^5H,1^7H-8-oxa-1(13,15)-pyrido[3', 2':7,8][1,5]oxazonino[5,6-a]indola-2(4,2)-thiazola-6(1,3)-pyridazinacycloundecaphane-4-yl)cycl opropane-1-carboxamide [Example 150] |  |  | 1610 pM | 8100 pM |  |  |  |  |  |  |  |  |  | 930 pM | 160 pM |  |
| (1S,2S)-2-(difluoromethyl)-N-((1^5S,6^4S,4S,Z)-1^5,10,10-trimethyl-1^2-(4-methylpiperazin-1-yl)-5, 7-dioxo-1^8,1^9-dihydro-1^5H,1^7H-8-oxa-6^2,6^3-diaza-1(13,15)-pyrido[3',2':7,8][1,5]oxazonino[5,6-a ]indola-2(4,2)-thiazola-6(2,4)-bicyclo[3.1.1]heptanacycloundecaphane-4-yl)cyclopropane-1-carb oxamide [Example 184] |  |  |  |  | 19.6 |  |  |  |  |  |  |  |  | 900 pM | 650 pM | AUC(0-t) ([5]; IV 1 mg/kg (n=3)): 5558 ng·h/mL; CL ([5]; IV 1 mg/kg (n=3)): 2.56 mL/min/kg; T1/2 ([5]; IV 1 mg/kg (n=3)): 9.07 h; Vss ([5]; IV 1 mg/kg (n=3)): 1.71 L/kg; AUC(0-t) ([5]; PO 10 mg/kg (n=3)): 10910 ng·h/mL; Tmax ([5]; PO 10 mg/kg (n=3)): 3.33 h |
